Series [1] in a line: reversed-phase LC retention time (C18, 15 min MeOH gradient); higher = more hydrophobic / later elution.
A short description of series [2]: collision cross section (TIMS, N2 drift gas) of the primary ion; higher = larger gas-phase ion size.
[3] abbreviates: ionization mode: ESI+, ion species: [M+H]+.
The mark [4] stands for this setting: ionization mode: ESI-, ion species: [M-H]-.
The mark [5] stands for this setting: ionization mode: ESI+, ion species: [M]+.

Each structure is given as a SMILES string.

Regarding `C[C@@H]1NC(C)(C)CO[C@@]1(O)c1cccc(Cl)c1` [(S,S)-Hydroxybupropion], the “reversed-phase LC retention time” value came to 9.89 min in series [1] (setting [3]) and 13.5 min in series [1] (setting [4]). The collision cross section in series [2] (setting [3]) is on record as 159.75 Å²; in series [2] (setting [4]), 159.63 Å².
On to `Nc1nc(NC2CC2)c2ncn([C@H]3C=C[C@@H](CO)C3)c2n1` [Abacavir], for which the “reversed-phase LC retention time” value in series [1] (setting [3]) was determined as 8 min. The collision cross section in series [2] (setting [3]) turned out to be 168.31 Å².
Regarding `CC1=CC(=O)NS(=O)(=O)O1` [Acesulfame], the “reversed-phase LC retention time” value in series [1] (setting [4]) worked out at 2.26 min. The same compound had a collision cross section in series [2] (setting [4]) of 122.01 Å².
Regarding `CC(=O)Nc1ccc(O)cc1` [Acetaminophen], the “reversed-phase LC retention time” value in series [1] (setting [3]) is 5.38 min. This compound came in with a collision cross section in series [2] (setting [3]) of 130.01 Å².
For `CC(=NC#N)N(C)Cc1ccc(Cl)nc1` [Acetamiprid], the “reversed-phase LC retention time” value in series [1] (setting [3]) came out at 9.29 min; in series [1] (setting [4]), 9.38 min. The values for the collision cross section in series [2] (setting [3]) and in series [2] (setting [4]) were 153.22 Å² and 148.19 Å², respectively.
Consider `CCOCN(C(=O)CCl)c1c(C)cccc1CC` [Acetochlor], for which, in series [1] (setting [3]), the “reversed-phase LC retention time” value was 15 min. Moreover, in series [2] (setting [3]), the collision cross section is recorded as 158.08 Å².
Regarding `CC(=O)Nc1ccc(S(=O)(=O)Nc2cc(C)on2)cc1` [Acetylsulfamethoxazole], the “reversed-phase LC retention time” value in series [1] (setting [3]) came out at 9.53 min; in series [1] (setting [4]), 6.92 min. The collision cross section in series [2] (setting [3]) was found to be 169.12 Å²; in series [2] (setting [4]), 165.1 Å².
For the compound `c1ccc2nc3ccccc3cc2c1` [Acridine], in series [1] (setting [3]), the “reversed-phase LC retention time” value was found to be 8.73 min. In series [2] (setting [3]), this compound registered a collision cross section of 132.33 Å².
The corresponding values for `O=c1c2ccccc2[nH]c2ccccc12` [Acridone] are 11.1 min and 136.53 Å².
Turning to `Nc1nc2c(ncn2COCCO)c(=O)[nH]1` [Acyclovir], the “reversed-phase LC retention time” value in series [1] (setting [3]) amounted to 3.16 min; in series [1] (setting [4]), 3.13 min. Further, the collision cross section in series [2] (setting [3]) came out at 148.26 Å²; in series [2] (setting [4]), 146.78 Å².
As for `COc1cc2c(c3oc(=O)c4c(c13)CCC4=O)C1C=COC1O2` (stereo not drawn) [Aflatoxin B1], the “reversed-phase LC retention time” value in series [1] (setting [3]) was found to be 11.4 min. This compound also displayed a collision cross section in series [2] (setting [3]) of 165.23 Å².
As to `CCCSc1ccc2[nH]c(NC(=O)OC)nc2c1` [Albendazole], the entries for the “reversed-phase LC retention time” value in series [1] (setting [3]) and in series [1] (setting [4]) were 13.1 min and 14.2 min, respectively. The collision cross section in series [2] (setting [3]) is listed as 165.21 Å²; in series [2] (setting [4]) it was 165.62 Å².
The corresponding values for `C[C@]12CCC(=O)C=C1CC[C@@H]1[C@@H]2[C@@H](O)C[C@]2(C=O)[C@@H](C(=O)CO)CC[C@@H]12` [Aldosterone] are 16.5 min, 11.9 min, 204.03 Å² and 182.17 Å².
As to `NC12CC3CC(CC(C3)C1)C2` [Amantadine], in series [1] (setting [3]), the “reversed-phase LC retention time” value is 8.82 min. In series [2] (setting [3]), the collision cross section is given as 138.51 Å².
As for `CC(=O)OCC(=O)[C@@]12OC3(CCCC3)O[C@@H]1C[C@H]1[C@@H]3CCC4=CC(=O)C=C[C@]4(C)[C@@]3(F)[C@@H](O)C[C@@]12C` [Amcinonide], the “reversed-phase LC retention time” value in series [1] (setting [3]) was 15.6 min. In series [2] (setting [3]), this compound had a collision cross section of 217.58 Å².
For the compound `CCNc1nc(NC(C)C)nc(SC)n1` [Ametryne], in series [1] (setting [3]), the “reversed-phase LC retention time” value was determined as 12.8 min. Further, the collision cross section in series [2] (setting [3]) worked out at 155.28 Å².
Regarding `CCCCCCCCCCCCCC(=O)NCCC[N+](C)(C)CCCS(=O)(=O)O` [Amidosulfobetaine-14], the “reversed-phase LC retention time” value in series [1] (setting [5]) was 16.9 min. Also, the collision cross section in series [2] (setting [5]) is given as 217.87 Å².
On to `COc1cc(OC)nc(NC(=O)NS(=O)(=O)N(C)S(C)(=O)=O)n1` [Amidosulfuron], for which the “reversed-phase LC retention time” value was 12.1 min in series [1] (setting [3]) and 8.09 min in series [1] (setting [4]). The collision cross section was determined as 175.88 Å² in series [2] (setting [3]) and 179.05 Å² in series [2] (setting [4]).
`NC(N)=NC(=O)c1nc(Cl)c(N)nc1N` [Amiloride]: the “reversed-phase LC retention time” value in series [1] (setting [3]) was determined as 6.27 min. The collision cross section in series [2] (setting [3]) is recorded as 149.53 Å².
`Nc1ccc(Oc2ccc(Cl)cc2Cl)cc1C(=O)O` [Aminobifenox acid]: the “reversed-phase LC retention time” value in series [1] (setting [3]) worked out at 15.4 min; in series [1] (setting [4]), 13.2 min. The values for the collision cross section in series [2] (setting [3]) and in series [2] (setting [4]) were 173.06 Å² and 169.52 Å², respectively.
Regarding `CCCCc1oc2ccccc2c1C(=O)c1cc(I)c(OCCN(CC)CC)c(I)c1` [Amiodarone], in series [1] (setting [3]), the “reversed-phase LC retention time” value came to 16.5 min. The compound also gave a collision cross section in series [2] (setting [3]) of 228.68 Å².
The corresponding values for `CCN1CCCC1CNC(=O)c1cc(S(=O)(=O)CC)c(N)cc1OC` (stereo not drawn) [Amisulpride] are 7.75 min and 193.4 Å².
The corresponding values for `CN(C)CCC=C1c2ccccc2CCc2ccccc21` [Amitriptyline] are 13.1 min and 167.84 Å².
The corresponding values for `CC(C)(C#N)c1cc(Cn2cncn2)cc(C(C)(C)C#N)c1` [Anastrozole] are 11.3 min and 185.09 Å².
Regarding `O=c1cc(-c2ccc(O)cc2)oc2cc(O[C@@H]3O[C@H](CO)[C@@H](O)[C@H](O)[C@H]3O[C@@H]3OC[C@](O)(CO)[C@H]3O)cc(O)c12` [Apiin], the “reversed-phase LC retention time” value in series [1] (setting [3]) is 10.3 min; in series [1] (setting [4]), 10.1 min. The collision cross section amounted to 232.7 Å² in series [2] (setting [3]) and 224.84 Å² in series [2] (setting [4]).

Source of the values: the supplement of paper PMC12613149.
